Assay results published in US20170086461A1, “SYNERGISTIC ANTIMICROBIAL COMPOSITION” (Dow Global Technologies LLC, priority 2015, published 2017).

System: Pseudomonas aeruginosa DSM # 939
Test: Minimum Inhibitory Concentration (MIC) test with synergy index (Kull method)
Format: cell-based
Details: single biocide acting alone; TSB broth, 30° C., 48 hours, ~1×10^6 CFU/ml
Method: The synergism of the biocides combination of the present invention was determined using the method described by Kull, F.C., et. al in Applied Microbiology 9:538-541 (1961).
The formula to calculate the synergy index (SI) is
• QA=concentration of compound A in ppm, acting alone produced an end point (growth/no growth) • Qa=concentration of compound A in ppm, in the mixture, which produced an end point (growth/no growth) • QB=concentration of compound B in ppm, acting alone produced an end point (growth/no growth) • Qb=concentration of compound B in ppm, in the mixture, which produced an end point (growth/no growth)
The Minimum Inhibitory Test (MIC) is designed to evaluate the lowest concentration of a biocide, biocide blend or biocide combination to prevent bacteria growing in a defined broth.
Minimum Inhibitory Concentration (MIC) Testing Protocol • 1. […]
The culture was maintained as a glycerol stock at −80° C. in cryovials. […] Reading of the results was carried out by measuring absorbance at 600 nm for each sample at the beginning of the test (tzero) and after incubation (tendpoint). tendpoint was chosen at 48 hours for bacteria. The difference in absorbance between tendpoint and tzero was used to assign a score (Δ>0.2 confirms growth while Δ≦0.2 confirms no growth) from which the MIC values were calculated.

Row | SMILES | Minimum Concentration (active ppm) to Inhibit Growth, active alone
1 | Cn1sc2ccccc2c1=O [MBIT, 2-methyl-1,2-benzothiazol-3(2H)-one] | 62 ppm
2 | Cc1cc(O)ccc1Cl [Chlorocresol, 4-chloro-3-methylphenol] | 1539 ppm
